US8623857B2, “N-phenyl imidazole carboxamide inhibitors of 3-phosphoinositide-dependent protein kinase-1” (Merck Sharp & Dohme Corp., priority 2010, dated 2014)

Target: T1, recombinant human PDK1 (Homo sapiens, UniProt O15530)
T1 construct: containing amino acids 51-556 of the human PDK1 enzyme; made in house; host or cells: Sf9 insect cells
T1 sequence (O15530 51-556): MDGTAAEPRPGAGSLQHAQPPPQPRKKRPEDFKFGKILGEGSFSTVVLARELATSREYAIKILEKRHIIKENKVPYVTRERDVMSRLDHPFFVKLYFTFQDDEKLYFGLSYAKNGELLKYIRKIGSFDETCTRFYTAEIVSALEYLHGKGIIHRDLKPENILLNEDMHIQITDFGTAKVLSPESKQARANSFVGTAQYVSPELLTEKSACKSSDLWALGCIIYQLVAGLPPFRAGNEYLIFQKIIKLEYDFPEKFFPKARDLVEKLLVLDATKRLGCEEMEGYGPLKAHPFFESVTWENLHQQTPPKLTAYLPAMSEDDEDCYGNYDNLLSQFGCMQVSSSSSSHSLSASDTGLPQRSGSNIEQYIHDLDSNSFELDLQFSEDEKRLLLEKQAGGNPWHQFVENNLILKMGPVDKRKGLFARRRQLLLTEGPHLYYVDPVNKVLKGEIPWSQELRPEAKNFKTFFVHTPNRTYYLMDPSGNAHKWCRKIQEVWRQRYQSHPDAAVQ
Experiment: PDK1 IMAP fluorescence polarization assay (inhibition of peptide substrate phosphorylation)
Type: biochemical
Details: Table 6; 10 nM PDK1 enzyme, 100 nM peptide substrate, 100 nM PIFtide, 2.5 uM ATP, 1.5 hours

IC50 [µM] | Compound
0.251 to 1 | CN(C)CCOc1ccccc1NC(=O)c1nc(-c2c[nH]c3ccccc23)c[nH]1 [Compound 17, N-[2-[2-(dimethylamino)ethoxy]phenyl]-4-(1H-indol-3-yl)-1H-imidazole-2-carboxamide]
0.001 to 0.05 | Cc1cc(-c2c[nH]c(C(=O)Nc3cccc(F)c3N3CCC(CN)CC3)n2)ccn1 [Compound 18, N-[2-[4-(aminomethyl)-1-piperidinyl]-3-fluorophenyl]-4-(2-methyl-4-pyridinyl)-1H-imidazole-2-carboxamide]
0.051 to 0.25 | N[C@@H]1CCCN(c2c(F)cccc2NC(=O)c2nc(-c3ccnc(C(F)(F)F)c3)c[nH]2)C1 [Compound 19, N-[2-(3(R)-amino-1-piperidinyl)-3-fluorophenyl]-4-[2-(trifluoromethyl)-4-pyridinyl]-1H-imidazole-2-carboxamide]
0.001 to 0.05 | Nc1cc(-c2c[nH]c(C(=O)Nc3cccc(F)c3N3CCC[C@@H](N)C3)n2)ccn1 [Compound 20, N-[2-(−3(R)-amino-1-piperidinyl)-3-fluorophenyl]-4-(2-amino-4-pyridinyl)-1H-imidazole-2-carboxamide]
0.051 to 0.25 | COc1cc(-c2c[nH]c(C(=O)Nc3cccc(F)c3N3CCC[C@@H](N)C3)n2)ccn1 [Compound 21, N-[2-(3(R)-amino-1-piperidinyl)-3-fluorophenyl]-4-(2-methoxy-4-pyridinyl)-1H-imidazole-2-carboxamide]
0.251 to 1 | N[C@@H]1CCCN(c2c(F)cccc2NC(=O)c2nc(C3=CCOCC3)c[nH]2)C1 [Compound 22, N-[2-(3(R)-amino-1-piperidinyl)-3-fluorophenyl]-4-(3,6-dihydro-2h-pyran-4-yl)-1H-imidazole-2-carboxamide]
0.051 to 0.25 | N[C@@H]1CCCN(c2c(F)cccc2NC(=O)c2nc(-c3ccnc(C4CC4)c3)c[nH]2)C1 [Compound 23, N-[2-(3(R)-amino-1-piperidinyl)-3-fluorophenyl]-4-(2-cyclopropyl-4-pyridinyl)-1H-imidazole-2-carboxamide]
0.001 to 0.05 | Cc1cc(-c2c[nH]c(C(=O)Nc3cccc(F)c3N3CCC[C@@H](N)C3)n2)cc(N)n1 [Compound 24, 4-(2-amino-6-methyl-4-pyridinyl)-N-[2-(3(R)-amino-1-piperidinyl)-3-fluorophenyl]-1H-imidazole-2-carboxamide]
1 to 5 | N[C@@H]1CCCN(c2c(F)cccc2NC(=O)c2nc(-c3ccnc(O)c3)c[nH]2)C1 [Compound 25, N-[2-(3(R)-amino-1-piperidinyl)-3-fluorophenyl]-4-(2-hydroxy-4-pyridinyl)-1H-imidazole-2-carboxamide]
0.001 to 0.05 | N[C@@H]1CCCN(c2c(F)cccc2NC(=O)c2nc(-c3ccnc(CO)c3)c[nH]2)C1 [Compound 26, N-[2-(3(R)-amino-1-piperidinyl)-3-fluorophenyl]-4-[2-(hydroxymethyl)-4-pyridinyl]-1H-imidazole-2-carboxamide]
0.001 to 0.05 | NCC1CCN(c2c(F)cccc2NC(=O)c2nc(-c3ccnc(N)c3)c[nH]2)CC1 [Compound 27, N-[2-[4-(aminomethyl)-1-piperidinyl]-3-fluorophenyl]-4-(2-amino-4-pyridinyl)-1H-imidazole-2-carboxamide]
0.051 to 0.25 | NCC1CCN(c2c(NC(=O)c3nc(-c4ccnc(N)c4)c[nH]3)ccc(F)c2F)CC1 [Compound 28, N-[2-[4-(aminomethyl)-1-piperidinyl]-3,4-difluorophenyl]-4-(2-amino-4-pyridinyl)-1H-imidazole-2-carboxamide]
0.001 to 0.05 | Cc1cc(-c2c[nH]c(C(=O)Nc3cccc(F)c3N3CCC[C@@H](N)C3)n2)nc(N)n1 [Compound 29, 4-(2-amino-6-methyl-4-pyrimidinyl)-N-[2-(3(R)-amino-1-piperidinyl)-3-fluorophenyl]-1H-imidazole-2-carboxamide]
0.001 to 0.05 | CCc1cc(-c2c[nH]c(C(=O)Nc3cccc(F)c3N3CCC(CN)CC3)n2)ccn1 [Compound 30, N-[2-[4-(aminomethyl)-1-piperidinyl]-3-fluorophenyl]-4-(2-ethyl-4-pyridinyl)-1H-imidazole-2-carboxamide]
0.051 to 0.25 | NCC1CCN(c2c(F)cccc2NC(=O)c2nc(-c3cccc(S(N)(=O)=O)c3)c[nH]2)CC1 [Compound 31, N-[2-[4-(aminomethyl)-1-piperidinyl]-3-fluorophenyl]-4-[3-(aminosulfonyl)phenyl]-1H-imidazole-2-carboxamide]
0.001 to 0.05 | CNc1cc(-c2c[nH]c(C(=O)Nc3cccc(F)c3N3CCC(CN)CC3)n2)ccn1 [Compound 32, N-[2-[4-(aminomethyl)-1-piperidinyl]-3-fluorophenyl]-4-[2-(methylamino)-4-pyridinyl]-1H-imidazole-2-carboxamide]
0.051 to 0.25 | CC(=O)Nc1cc(-c2c[nH]c(C(=O)Nc3cccc(F)c3N3CCC(CN)CC3)n2)ccn1 [Compound 33, 4-[2-(acetylamino)-4-pyridinyl]-N-[2-[4-(aminomethyl)-1-piperidinyl]-3-fluorophenyl]-1H-imidazole-2-carboxamide]
0.051 to 0.25 | NCC1CCN(c2c(F)cccc2NC(=O)c2nc(-c3cccc(Cl)c3)c[nH]2)CC1 [Compound 34, N-[2-[4-(aminomethyl)-1-piperidinyl]-3-fluorophenyl]-4-(3-chlorophenyl)-1H-imidazole-2-carboxamide]
0.001 to 0.05 | NCC1CCN(c2c(F)cccc2NC(=O)c2nc(-c3ccnc(NCc4ccccc4)c3)c[nH]2)CC1 [Compound 35, N-[2-[4-(aminomethyl)-1-piperidinyl]-3-fluorophenyl]-4-[2-[(phenylmethyl)amino]-4-pyridinyl]-1H-imidazole-2-carboxamide]
0.251 to 1 | CN(C)c1cc(-c2c[nH]c(C(=O)Nc3cccc(F)c3N3CCC(CN)CC3)n2)ccn1 [Compound 36, N-[2-[4-(aminomethyl)-1-piperidinyl]-3-fluorophenyl]-4-[2-(dimethylamino)-4-pyridinyl]-1H-imidazole-2-carboxamide]
1 to 5 | Cc1ccc(C)c(-c2c[nH]c(C(=O)Nc3cccc(F)c3N3CCC(CN)CC3)n2)c1 [Compound 37, N-[2-[4-(aminomethyl)-1-piperidinyl]-3-fluorophenyl]-4-(2,5-dimethylphenyl)-1H-imidazole-2-carboxamide]
0.251 to 1 | N[C@@H]1CCCN(c2c(F)cccc2NC(=O)c2nc(-c3ccc(F)cc3F)c[nH]2)C1 [Compound 38, N-[2-(3(R)-amino-1-piperidinyl)-3-fluorophenyl]-4-(2,4-difluorophenyl)-1H-imidazole-2-carboxamide]
0.251 to 1 | N[C@@H]1CCCN(c2c(F)cccc2NC(=O)c2nc(-c3ccnc(-n4cccn4)c3)c[nH]2)C1 [Compound 39, N-[2-(3(R)-amino-1-piperidinyl)-3-fluorophenyl]-4-[2-(1H-pyrazol-1-yl)-4-pyridinyl]-1H-imidazole-2-carboxamide]
0.251 to 1 | CN(C)CC1CCN(c2ccccc2NC(=O)c2nc(-c3ccnc(N)c3)c[nH]2)CC1 [Compound 40, 4-(2-amino-4-pyridinyl)-N-[2-[4-[(dimethylamino)methyl]-1-piperidinyl]phenyl]-1H-imidazole-2-carboxamide]
0.051 to 0.25 | NCC1CCN(c2c(F)cccc2NC(=O)c2nc(-c3cccc(CCO)c3)c[nH]2)CC1 [Compound 41, N-[2-[4-(aminomethyl)-1-piperidinyl]-3-fluorophenyl]-4-[3-(2-hydroxyethyl)phenyl]-1H-imidazole-2-carboxamide]
